Measured values from ChEMBL document CHEMBL1201862, “PubChem BioAssay data set” (2004).
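Exposure lasted 48 hours, with cells grown in 96-well plates and compounds tested at five concentrations. GI50: concentration for 50% inhibition of growth.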 The source made the active and inactive calls. No stated cut-off is given here; in the data, active = GI50 up to about 1.1 µM and inactive = higher.

What was measured:
Test in all cases: NCI tumour cell line growth inhibition, 48 h
[1] = tested on: PC-3
[2] = tested on: SK-MEL-5
[3] = tested on: K562
[4] = tested on: SF-295
[5] = tested on: EKVX
[6] = tested on: NCI-H522
[7] = tested on: OVCAR-4
[8] = tested on: NCI-H226
[9] = tested on: DU-145
[10] = tested on: U-251
[11] = tested on: HCC 2998
[12] = tested on: CAKI-1
[13] = tested on: OVCAR-5
[14] = tested on: SK-MEL-2
[15] = tested on: T47D
[16] = tested on: MOLT-4
[17] = tested on: SF-268
[18] = tested on: M14
[19] = tested on: HL-60
[20] = tested on: SK-OV-3
[21] = tested on: SF-539
[22] = tested on: MDA-MB-231
[23] = tested on: SK-MEL-28
[24] = tested on: MCF7
[25] = tested on: NCI-H460
[26] = tested on: HOP-62
[27] = tested on: UO-31
[28] = tested on: RPMI-8226
[29] = tested on: SN12C
[30] = tested on: KM12
[31] = tested on: OVCAR-8
[32] = tested on: LOX IMVI
[33] = tested on: BT-549
[34] = tested on: Malme-3M
[35] = tested on: TK-10
[36] = tested on: MDA-N
[37] = tested on: A498
[38] = tested on: SR
[39] = tested on: UACC-62
[40] = tested on: IGROV-1
[41] = tested on: HOP-92
[42] = tested on: HCT-15
[43] = tested on: RXF 393
[44] = tested on: SNB-75
[45] = tested on: Hs-578T
[46] = tested on: CCRF-CEM
[47] = tested on: ACHN
[48] = tested on: 786-0
[49] = tested on: HT-29
[50] = tested on: MDA-MB-435
[51] = tested on: SNB-19
[52] = tested on: NCI/ADR-RES
[53] = tested on: HCT-116
[54] = tested on: UACC-257
[55] = tested on: A549
[56] = tested on: NCI-H23
[57] = tested on: SW-620
[58] = tested on: COLO 205
[59] = tested on: OVCAR-3

CC(C)[Si]1(C(C)C)OCC2OC(n3cnc4c(N)ncnc43)C(N)C2O[Si](C(C)C)(C(C)C)O1 (stereo not drawn)
GI50 [1]: 3.16 µM (inactive)
GI50 [2]: 2.06 µM (inactive)
GI50 [3]: 3.51 µM (inactive)
GI50 [4]: 3.65 µM (inactive)
GI50 [5]: 17.7 µM (inactive)
GI50 [6]: 8.04 µM (inactive)
GI50 [7]: 8.09 µM (inactive)
GI50 [8]: 9.66 µM (inactive)
GI50 [9]: 11.9 µM (inactive)
GI50 [10]: 8.32 µM (inactive)
GI50 [11]: 4.79 µM (inactive)
GI50 [12]: 11 µM (inactive)
GI50 [13]: 16.8 µM (inactive)
GI50 [14]: 6.22 µM (inactive)
GI50 [15]: 8.15 µM (inactive)
GI50 [16]: 2.08 µM (inactive)
GI50 [17]: 12 µM (inactive)
GI50 [18]: 8.45 µM (inactive)
GI50 [19]: 3.78 µM (inactive)
GI50 [20]: 24 µM (inactive)
GI50 [21]: 11.6 µM (inactive)
GI50 [22]: 13.7 µM (inactive)
GI50 [23]: 25.9 µM (inactive)
GI50 [24]: 2.55 µM (inactive)
GI50 [25]: 4.07 µM (inactive)
GI50 [26]: 17.2 µM (inactive)
GI50 [27]: 3.47 µM (inactive)
GI50 [28]: 2.22 µM (inactive)
GI50 [29]: 10.1 µM (inactive)
GI50 [30]: 4.1 µM (inactive)
GI50 [31]: 8.24 µM (inactive)
GI50 [32]: 5.75 µM (inactive)
GI50 [33]: 6.41 µM (inactive)
GI50 [34]: 17.8 µM (inactive)
GI50 [35]: 10.1 µM (inactive)
GI50 [36]: 6.32 µM (inactive)
GI50 [37]: 13.9 µM (inactive)
GI50 [38]: 2.42 µM (inactive)
GI50 [39]: 10.1 µM (inactive)
GI50 [40]: 7.33 µM (inactive)
GI50 [41]: 11.8 µM (inactive)
GI50 [42]: 6.9 µM
GI50 [43]: 8.97 µM (inactive)
GI50 [44]: 4.69 µM (inactive)
GI50 [45]: 11.8 µM (inactive)
GI50 [46]: 9.29 µM (inactive)
GI50 [47]: 3.44 µM (inactive)
GI50 [48]: 5.11 µM (inactive)
GI50 [49]: 4.6 µM (inactive)
GI50 [50]: 6.75 µM (inactive)
GI50 [51]: 4.88 µM (inactive)
GI50 [52]: 5.21 µM (inactive)
GI50 [53]: 4.14 µM (inactive)
GI50 [54]: 5.73 µM (inactive)
GI50 [55]: 5.58 µM (inactive)
GI50 [56]: 9.16 µM (inactive)
GI50 [57]: 6.41 µM (inactive)
GI50 [58]: 5.68 µM (inactive)
GI50 [59]: 5.22 µM (inactive)

COc1cc2c3c4c1OCc1c5c(cc(c1-4)CC3[N+](C)(C)CC2)OCO5 (stereo not drawn)
GI50 [1]: > 100 µM (inactive)
GI50 [2]: > 100 µM (inactive)
GI50 [3]: > 86.9 µM (inactive)
GI50 [4]: 6.05 µM (inactive)
GI50 [5]: > 100 µM (inactive)
GI50 [6]: 27.1 µM (inactive)
GI50 [7]: > 100 µM (inactive)
GI50 [8]: 32.3 µM (inactive)
GI50 [9]: > 100 µM (inactive)
GI50 [10]: 4.9 µM (inactive)
GI50 [11]: > 100 µM (inactive)
GI50 [12]: > 100 µM (inactive)
GI50 [13]: > 100 µM (inactive)
GI50 [14]: > 100 µM (inactive)
GI50 [15]: > 100 µM (inactive)
GI50 [16]: > 100 µM (inactive)
GI50 [17]: 2.79 µM (inactive)
GI50 [18]: > 100 µM (inactive)
GI50 [19]: > 100 µM (inactive)
GI50 [20]: > 100 µM (inactive)
GI50 [21]: 11.2 µM (inactive)
GI50 [22]: > 100 µM (inactive)
GI50 [23]: > 100 µM (inactive)
GI50 [24]: > 100 µM (inactive)
GI50 [25]: > 100 µM (inactive)
GI50 [26]: 31.1 µM (inactive)
GI50 [27]: > 100 µM (inactive)
GI50 [28]: > 100 µM (inactive)
GI50 [29]: 3.21 µM (inactive)
GI50 [30]: > 100 µM (inactive)
GI50 [31]: > 72.9 µM (inactive)
GI50 [32]: > 100 µM (inactive)
GI50 [33]: 2.83 µM (inactive)
GI50 [34]: 60.5 µM (inactive)
GI50 [35]: > 100 µM (inactive)
GI50 [36]: > 100 µM (inactive)
GI50 [37]: > 100 µM (inactive)
GI50 [38]: 49.8 µM (inactive)
GI50 [39]: > 100 µM (inactive)
GI50 [40]: > 100 µM (inactive)
GI50 [41]: > 100 µM (inactive)
GI50 [42]: > 100 µM
GI50 [43]: > 100 µM (inactive)
GI50 [44]: 26.7 µM (inactive)
GI50 [45]: 4.18 µM (inactive)
GI50 [46]: > 100 µM (inactive)
GI50 [47]: > 100 µM (inactive)
GI50 [48]: 4.33 µM (inactive)
GI50 [49]: > 100 µM (inactive)
GI50 [50]: > 100 µM (inactive)
GI50 [51]: 4.33 µM (inactive)
GI50 [52]: > 80.5 µM (inactive)
GI50 [53]: > 100 µM (inactive)
GI50 [54]: > 100 µM (inactive)
GI50 [55]: > 100 µM (inactive)
GI50 [56]: 54.8 µM (inactive)
GI50 [57]: > 100 µM (inactive)
GI50 [58]: > 100 µM (inactive)
GI50 [59]: > 89.9 µM (inactive)
